Data: patent US9073940B2, “Tricyclic pyrazol amine derivatives” (MERCK SERONO SA, priority 2009, dated 2015)
Read-outs that look alike come from different tables or passages of the source.

Columns and labels:
[1] = test system: 4 PI3K isoforms (Human recombinant GST-PI3K); assay: PI3K scintillation proximity assay, best IC50 obtained with the four isoforms (alpha, beta, delta, gamma); type: biochemical; details: best IC50 obtained with the four isoforms of PI3K; read-out: Best potency measured on the 4 PI3K isoforms
[2] = test system: AKT phosphorylation (p-AKT Ser 473) in Ramos B-lymphocyte cell line; assay: Mechanistic on-target cell assay: flow cytometry of AKT phosphorylation after anti-human IGM stimulation; type: cell-based
Procedure: Mechanistic-On Target Cell Assay
The reaction was stopped by fixing the cells with Paraformaldehyde 4% (final) for 10 minutes at room temperature. Cells were washed once with Phosphate Buffer Saline (PBS), permabilized in PBS-Triton X-100 0.2% for 15 minutes at room temperature washed twice with PBS and once with PBS-4% serum. […] Cells were washed twice in PBS and resuspended in PBS. The cell suspension was passed on a FC500 flow cytometer (Beckman Coulter), gating on the IGM positive cells and measuring the AKT phosphorylation.

[3] = target: CK2 protein kinase (Homo sapiens (Human), UniProt P68400); details: cited from earlier work
[4] = test system: Class I PI3-kinases; details: each of the Class I PI3-kinases, cited from earlier work

CK2 protein kinase, sequence (P68400 whole entry): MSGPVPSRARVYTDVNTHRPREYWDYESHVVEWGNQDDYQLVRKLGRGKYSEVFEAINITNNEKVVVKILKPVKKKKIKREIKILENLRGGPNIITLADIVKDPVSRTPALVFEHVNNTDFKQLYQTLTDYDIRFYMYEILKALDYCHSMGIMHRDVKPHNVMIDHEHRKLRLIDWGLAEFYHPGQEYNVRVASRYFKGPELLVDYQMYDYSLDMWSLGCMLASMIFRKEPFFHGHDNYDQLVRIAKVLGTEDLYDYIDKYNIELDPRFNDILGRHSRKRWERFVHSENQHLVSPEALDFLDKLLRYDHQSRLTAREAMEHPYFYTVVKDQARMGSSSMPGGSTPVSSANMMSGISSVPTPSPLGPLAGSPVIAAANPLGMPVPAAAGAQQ

Row | IC50 [1] [nM] | IC50 [2] [nM] | Compound | IC50 [3] [nM] | IC50 ([4]; read-out: IC50 against each of these PI3-kinases) [nM] | IC50 ([4]; read-out: IC50 against each of the various Class I PI3-kinases) [nM]
1 | 244 | 706 | O=C(c1nn(-c2ccccc2)c2c1CS(=O)(=O)c1ccccc1-2)N1CCOCC1 [Example 33, 3-(morpholin-4-ylcarbonyl)-1-phenyl-1,4-dihydrothiochromeno[4,3-c]pyrazole 5,5-dioxide] | – | – | –
2 | 1750 | 1800 | Cn1nc(C(=O)N2CCOCC2)c2c1-c1ccccc1S(=O)(=O)C2 [Example 34, 1-methyl-3-(morpholin-4-ylcarbonyl)-1,4-dihydrothiochromeno[4,3-c]pyrazole 5,5-dioxide] | – | – | –
3 | 601 | 493 | CCn1nc(C(=O)N2CCOCC2)c2c1-c1ccccc1S(=O)(=O)C2 [Example 37, 1-ethyl-3-(morpholin-4-ylcarbonyl)-1,4-dihydrothiochromeno[4,3-c]pyrazole 5,5-dioxide] | – | – | –
4 | 459 | 942 | COc1ccc(Cn2nc(C(=O)N3CCOCC3)c3c2-c2ccccc2S(=O)(=O)C3)cc1 [Example 38, 1-(4-methoxybenzyl)-3-(morpholin-4-ylcarbonyl)-1,4-dihydrothiochromeno[4,3-c]pyrazole 5,5-dioxide] | – | – | –
5 | 641 | 388 | CCCn1nc(C(=O)N2CCOCC2)c2c1-c1ccccc1S(=O)(=O)C2 [Example 39, 3-(morpholin-4-ylcarbonyl)-1-propyl-1,4-dihydrothiochromeno[4,3-c]pyrazole 5,5-dioxide] | – | – | –
6 | 661 | 680 | O=C(c1nn(CCO)c2c1CS(=O)(=O)c1ccccc1-2)N1CCOCC1 [Example 46, 2-[3-(morpholin-4-ylcarbonyl)-5,5-dioxidothiochromeno[4,3-c]pyrazol-1(4H)-yl]ethanol] | – | – | –
7 | 531 | 8150 | O=C(c1nn(CC2CCNCC2)c2c1CS(=O)(=O)c1ccccc1-2)N1CCOCC1 [Example 56, 3-(morpholin-4-ylcarbonyl)-1-(piperidin-4-ylmethyl)-1,4-dihydrothiochromeno[4,3-c]pyrazole 5,5-dioxide] | – | – | –
8 | 368 | 251 | Nc1ccc2c(c1)-c1c(c(C(=O)N3CCOCC3)nn1-c1ccccc1)CS2(=O)=O [Example 65, 3-(Morpholin-4-ylcarbonyl)-1-phenyl-1,4-dihydrothiochromeno[4,3-c]pyrazol-8-amine 5,5-dioxide] | – | – | –
9 | 421 | 942 | CS(=O)(=O)NCc1ccc(-n2nc(C(=O)N3CCOCC3)c3c2-c2ccccc2S(=O)(=O)C3)cc1 [Example 66, N-{4-[3-(Morpholin-4-ylcarbonyl)-5,5-dioxidothiochromeno[4,3-c]pyrazol-1(4H)-yl]benzyl}methanesulfonamide] | – | – | –
10 | 205 | 317 | O=C(c1nn(C2CCCC2)c2c1CS(=O)(=O)c1ccccc1-2)N1CCOCC1 [Example 73, 1-Cyclopentyl-3-(morpholin-4-ylcarbonyl)-1,4-dihydrothiochromeno[4,3-c]pyrazole 5,5-dioxide] | – | – | –
11 | 437 | 492 | O=C(c1nn(C2CCCCC2)c2c1CS(=O)(=O)c1ncccc1-2)N1CCOCC1 [Example 79, 3-(Morpholin-4-ylcarbonyl)-1-cyclohexyl-1,4-dihydropyrazolo[3′,4′:4,5]thio pyrano[2,3-b]pyridine 5,5-dioxide] | – | – | –
12 | 43 | 492 | CN(C)Cc1ccc(-n2nc(C(=O)N3CCOCC3)c3c2-c2ccccc2S(=O)(=O)C3)cc1 [Example 226, N,N-Dimethyl-1-{4-[3-(morpholin-4-ylcarbonyl)-5,5-dioxidothiochromeno[4,3-c]pyrazol-1(4H)-yl]phenyl}methanamine] | – | – | –
13 | – | – | O=c1cc(N2CCOCC2)oc2c(-c3ccccc3)cccc12 [LY294002] | 5000 to 10000 | 15000 to 20000 | –
14 | – | – | COC[C@H]1OC(=O)c2coc3c2[C@@]1(C)C1=C(C3=O)[C@@H]2CCC(=O)[C@@]2(C)C[C@H]1OC(C)=O [Wortmannin] | – | – | 1 to 10
